Measurements: patent publication US7501410B2, “Methods of inhibiting BTK and SYK protein kinases” (Roche Palo Alto LLC, priority 2006, dated 2009)

How the values were obtained:
[1] = tested on: Ramos cells; assay: Inhibition of B-cell activation, B cell FLIPR assay in Ramos cells; format: cell-based; conditions: Homo sapiens, anti-IgM stimulated intracellular calcium increase
From the text: Inhibition of B-cell Activation—B Cell FLIPR Assay in Ramos Cells
The B cell FLIPR assay is a cell based functional method of determining the effect of potential inhibitors of the intracellular calcium increase from stimulation by an anti-IgM antibody. Ramos cells (human Burkitt's lymphoma cell line. ATCC-No. CRL-1596) were cultivated in Growth Media (described below). One day prior to assay, Ramos cells were resuspended in fresh growth media (same as above) and set at a concentration of 0.5×10^6/mL in tissue culture flasks. On day of assay, cells were counted and set at a concentration of 1×10^6/mL in growth media supplemented with 1 μM FLUO-3 AM(TefLabs Cat-No. 0116, prepared in anhydrous DMSO and 10% Pluronic acid) in a tissue culture flask, and incubated at 37° C. (4% CO2) for 1 h. To remove extracellular dye, cells were collected by centrifugation (5 min, 1000 rpm), resuspended in FLIPR buffer (described below) at 1×10^6 cells/mL and then dispensed into 96-well poly-D-lysine coated black/clear plates (BD Cat-No. 356692) at 1×10^5 cells per well. Test compounds at seven concentrations ranging from 100 μM to 0.03 μM were added, and allowed to incubate with cells for 30 min at RT. Ramos cell Ca^2+ signaling was stimulated by the addition of 10 μg/mL anti-IgM (Southern Biotech, Cat-No. 2020-01) and measured on a FLIPR (Molecular Devices, captures images of 96 well plates using a CCD camera with an argon laser at 480 nm excitation).
Growth Medium: RPMI 1640 medium with L-glutamine (Invitrogen, Cat-No. 61870-010), 10% Fetal Bovine Serum (FBS, Summit Biotechnology Cat-No. FP-100-05); 1 mM Sodium Pyruvate (Invitrogen Cat. No. 11360-070).
FLIPR buffer: HBSS (Invitrogen, Cat-No. 141175-079),2 mM CaCl2 (Sigma Cat-No. C-4901), HEPES (Invitrogen, Cat-No. 15630-080), 2.5 mM Probenecid (Sigma, Cat-No. P-8761), 0.1% BSA (Sigma, Cat-No. A-7906), 11 mM Glucose (Sigma, Cat-No. G-7528).
In order to achieve the highest final assay concentration of 100 μM, 24 μL of 10 mM compound stock solution (made in DMSO) is added directly to 576 μL of FLIPR buffer. The test compounds are diluted in FLIPR Buffer (using Biomek 2000 robotic pipettor) resulting in the following dilution scheme: vehicle, 1.00×10^−4 M, 1.00×10^−5, 3.16×10^−6, 1.00×10^−6, 3.16×10^−7, 1.00×10^−7, 3.16×10^−8.
Intracellular increases in calcium were reported using a max-min statistic (subtracting the resting baseline from the peak caused by addition of the stimulatory antibody using a Molecular Devices FLIPR control and statistic exporting software. The IC50 was determined using a non-linear curve fit (GraphPad Prism software). Representative results are in Table 1.

[2] = target: T1, Bruton's Tyrosine Kinase (Btk) (Homo sapiens, UniProt Q06187); assay: Determination of IC50 of Bruton's Tyrosine Kinase (Btk) inhibition, 33P filtration assay; format: biochemical; conditions: His-tagged full-length Btk, 100 μM ATP
T1 construct: 5-10 nM Btk enzyme (His-tagged, full-length); His tag
T1 sequence (Q06187 whole entry): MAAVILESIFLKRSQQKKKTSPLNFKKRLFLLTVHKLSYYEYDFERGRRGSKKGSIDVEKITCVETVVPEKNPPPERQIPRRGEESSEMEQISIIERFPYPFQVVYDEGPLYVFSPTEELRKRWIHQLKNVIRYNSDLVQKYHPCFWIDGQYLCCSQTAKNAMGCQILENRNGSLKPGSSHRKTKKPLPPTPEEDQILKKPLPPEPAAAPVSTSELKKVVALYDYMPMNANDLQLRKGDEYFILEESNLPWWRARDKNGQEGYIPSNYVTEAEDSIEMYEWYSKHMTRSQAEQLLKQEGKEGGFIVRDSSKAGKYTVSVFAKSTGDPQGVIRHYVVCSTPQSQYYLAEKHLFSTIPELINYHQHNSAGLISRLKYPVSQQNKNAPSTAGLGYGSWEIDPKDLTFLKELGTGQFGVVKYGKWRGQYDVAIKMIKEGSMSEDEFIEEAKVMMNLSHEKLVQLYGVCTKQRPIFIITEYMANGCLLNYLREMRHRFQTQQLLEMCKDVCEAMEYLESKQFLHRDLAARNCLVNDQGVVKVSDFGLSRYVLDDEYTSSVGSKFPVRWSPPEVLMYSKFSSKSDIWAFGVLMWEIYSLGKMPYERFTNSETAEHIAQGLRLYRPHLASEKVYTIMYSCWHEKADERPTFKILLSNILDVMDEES
In short: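 Full-length His-tagged Btk (5-10 nM) preincubated 10 min at RT with compounds, then 30 min at 30° C with 30 μM biotinylated SH2 peptide, 100 μM ATP plus ^33P ATP, Mn/Mg in imidazole buffer pH 7.2. Product captured on streptavidin beads, counted by scintillation; 10-point half-log IC50 from 100 μM, background without substrate.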

Row | IC50 [1] [µM] | IC50 [2] [µM] | SMILES
1 | 1.2 | 0.275 | Cc1cc(Nc2nn(C(C)C)c(=O)c3cc(N4CCOCC4)ccc23)n[nH]1 [Example F-1, 2-Isopropyl-4-(5-methyl-1H-pyrazol-3-ylamino)-7-morpholino-2H-phthalazin-1-one]
2 | 0.41 | 0.102 | Cc1cc(Nc2nn(C(C)C)c(=O)c3cc(N4CCN(C)CC4)ccc23)[nH]n1 [Example F-5, 2-Isopropyl-7-(4-methyl-piperazin-1-yl)-4-(5-methyl-2H-pyrazol-3-ylamino)-2H-phthalazin-1-one]
3 | 0.575 | 0.186 | Cc1cc(Nc2nn(C(C)C)c(=O)c3cc(OCCN(C)C)ccc23)n[nH]1 [Example ZD-5, 7-(2-Dimethylamino-ethoxy)-2-isopropyl-4-(5-methyl-1H-pyrazol-3-ylamino)-2H-phthalazin-1-one]
